As usually defined, the inhibition is the relative decrease from the control value, in per cent.

One test has as its target T1, β-mannosidase (Homo sapiens, UniProt O00462).
T1 construct: from leukocytes isolated from healthy donors (controls); from tissue; host or cells: leukocytes from healthy donors, sonicated homogenate
T1 sequence (O00462 18-879): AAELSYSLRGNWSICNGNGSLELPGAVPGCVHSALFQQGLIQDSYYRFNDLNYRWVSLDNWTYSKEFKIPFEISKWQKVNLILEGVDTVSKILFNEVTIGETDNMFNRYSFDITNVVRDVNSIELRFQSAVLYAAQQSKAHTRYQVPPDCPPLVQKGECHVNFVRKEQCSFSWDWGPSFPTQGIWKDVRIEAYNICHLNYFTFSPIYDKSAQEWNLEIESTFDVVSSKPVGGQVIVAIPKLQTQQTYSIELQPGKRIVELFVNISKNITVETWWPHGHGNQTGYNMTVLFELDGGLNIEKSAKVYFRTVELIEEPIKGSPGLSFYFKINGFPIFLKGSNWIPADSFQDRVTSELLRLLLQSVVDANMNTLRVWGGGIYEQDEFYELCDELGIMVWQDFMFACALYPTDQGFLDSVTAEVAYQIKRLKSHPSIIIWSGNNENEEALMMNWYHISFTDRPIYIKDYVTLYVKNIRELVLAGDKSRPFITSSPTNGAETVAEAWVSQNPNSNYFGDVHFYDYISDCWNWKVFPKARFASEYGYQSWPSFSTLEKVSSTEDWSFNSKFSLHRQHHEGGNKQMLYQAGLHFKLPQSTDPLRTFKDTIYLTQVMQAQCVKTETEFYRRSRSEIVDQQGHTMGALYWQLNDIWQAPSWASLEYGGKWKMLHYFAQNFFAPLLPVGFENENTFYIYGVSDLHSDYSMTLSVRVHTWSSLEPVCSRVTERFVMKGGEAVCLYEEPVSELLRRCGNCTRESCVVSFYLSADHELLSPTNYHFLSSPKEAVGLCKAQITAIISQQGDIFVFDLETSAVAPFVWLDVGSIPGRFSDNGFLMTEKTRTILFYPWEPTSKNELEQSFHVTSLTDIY
The test is described as follows: Human lysosomal glycosidase selectivity screening (leukocyte homogenate). Conditions: 1 mM, read-out: percentage of inhibition, β-Man. Format: biochemical. How it is done: (§1) In order to avoid undesired inhibitory side effects of a potential new drug, it has to be selective for a given target. The selectivity of the newly synthesized compounds 14, 15, and 33·HCl toward GCase was then investigated, evaluating their inhibition at 1 mM concentration toward six other lysosomal glycosidases (namely, α-and β-mannosidases, α- and β-galactosidases, α-fucosidase, and α-glucosidase) in cell homogenates (leucocytes or lymphocytes) isolated from healthy donors. […] Indeed, only moderate inhibitory activity (ca. 50%) was found toward human β-galactosidase for both piperidines 14 and 15, while negligible inhibitory activity was detected in all other cases.
(§2) The effect of 1 mM concentration of 14, 15, and 33·HCl was assayed toward six lysosomal glycosidases other than GCase, namely, α-mannosidase, β-mannosidase, α-galactosidase, β-galactosidase, α-fucosidase from leukocytes isolated from healthy donors (controls) and α-glucosidase from lymphocytes isolated from healthy donors’ flesh blood (controls). Isolated leukocytes or lymphocytes were disrupted by sonication, and a micro BCA protein assay kit (Sigma-Aldrich) was used to determine the total protein amount for the enzymatic assay, according to the manufacturer’s instructions (for more details, see the Supporting Information section).
Selectivity of compounds 14, 15 and 33.HCl towards lysosomal enzymes.
The effect of 1 mM concentration of 14, 15 and 33.HCl was assayed towards six lysosomal glycosidases other than GCase, namely: α-mannosidase, β-mannosidase, α-galactosidase, β-galactosidase, α-fucosidase from leukocytes isolated from healthy donors (controls) and α-glucosidase from lymphocytes isolated from healthy donors’ flesh blood (controls). Isolated leukocytes or lymphocytes were disrupted by sonication, and a micro BCA protein assay kit (Sigma–Aldrich) was used to determine the total protein amount for the enzymatic assay, according to the manufacturer instructions. […]
Molecular Devices). Inhibition is given with respect to the control (without azasugar). Data are mean SD (n=3). […]
Inhibition is given with respect to the control (without azasugar). Data are mean SD (n=3). […]
(1 picture or pasted object on this page, not shown here) […]
α-Fucosidase activity was measured in a flat -bottomed 96 -well plate. Azasugar solution (3 μL), 4.29 μg/μL leukocytes homogenate 1:3 (7 μL), and substrate 4 -methylumbe lliferyl α-L-fucopyranoside (1.51 mM, 20 μL, Sigma –Aldrich) in Na phosphate/citrate buffer (0.2:0.1, M/M, pH 5.5) were incubated at 37 °C for 1 h. […]
Data are mean SD (n=3). S74 […]
α-Glucosidase activity was measured in a flat –bottomed 96 well plate. Azasugar solution (3 µL), 4.29 µg/µL lymphocytes homogenate (7µL) and 20 µL of substrate solution of 4 -methylumbelliferyl -α-D-glucopyranoside (Sigma -Aldrich) in Na a cetate buffer (0.2 M, pH 4.0) were incubated for 1 h at 37 °C. The reaction was stopped by the addition of a solution of sodium carbonate (200 µL; 0.5M, pH 10.7) containing Triton X -100 (0.0025 %), and the fluorescence of 4 -methylumbelliferone released by α-glucosidase activity was measured in […]
respect to the control (without azasugar). Data are means of 3 values. […]
Figure S 48. Activity of a panel of 6 hu man lysosomal glycosidases in the presence of compounds 14, 15 and 33.HCl (1 mM ). The corresponding calculated percentage of inhibition is indicated above each bar.

The target in the next test is T2, α-fucosidase (Homo sapiens, UniProt P04066).
T2 construct: from leukocytes isolated from healthy donors (controls); from tissue; host or cells: leukocytes from healthy donors, sonicated homogenate
T2 sequence (P04066 32-466): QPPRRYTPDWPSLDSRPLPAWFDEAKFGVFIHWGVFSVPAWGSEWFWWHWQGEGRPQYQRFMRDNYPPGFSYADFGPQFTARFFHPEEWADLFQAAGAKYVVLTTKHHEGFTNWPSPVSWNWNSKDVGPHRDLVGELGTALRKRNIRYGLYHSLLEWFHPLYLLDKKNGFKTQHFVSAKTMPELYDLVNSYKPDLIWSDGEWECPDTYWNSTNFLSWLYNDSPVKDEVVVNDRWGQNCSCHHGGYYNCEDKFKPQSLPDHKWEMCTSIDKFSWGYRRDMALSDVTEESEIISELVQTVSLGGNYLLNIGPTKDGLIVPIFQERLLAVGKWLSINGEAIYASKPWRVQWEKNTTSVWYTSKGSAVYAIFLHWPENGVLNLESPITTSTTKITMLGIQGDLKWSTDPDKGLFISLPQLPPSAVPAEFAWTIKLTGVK
Described as above. It counts as biochemical. Conditions: 1 mM, read-out: percentage of inhibition, α-Fuco. How it is done:
as §1
as §2, with “section). […]” for “section).”
α-Fucosidase activity was measured in a flat -bottomed 96 -well plate. […] The reaction was stopped by addition of sodium carbonate (200 μL; 0.5M, pH 10.7) containing Triton X -100 (0.0 025 %), and the fluorescence 4 -methylumbelliferone released by α- fucosidase activity was measured in SpectraMax M2 microplate reader ( λex=365 nm, λem=435 nm; Molecular Devices). […]
α-Glucosidase activity was measured in a flat –bottomed 96 well plate. […] The reaction was stopped by the addition of a solution of sodium carbonate (200 µL; 0.5M, pH 10.7) containing Triton X -100 (0.0025 %), and the fluorescence of 4 -methylumbelliferone released by α-glucosidase activity was measured in […]
Figure S 48. […] The corresponding calculated percentage of inhibition is indicated above each bar.

Consider `CCCCCCCC[C@@H]1[C@@H](O)[C@H](O)[C@H](O)CN1CCCCCCCC` [compound 15, (2R,3R,4R,5R)-1,2-Dioctylpiperidine-3,4,5-triol], for which the inhibition at 1000 µM at β-mannosidase stood at 1%; at α-fucosidase, 24%.
Taken in the same sequence, the figures for `CCCCCCCC[C@@H]1[C@@H](O)[C@H](O)[C@H](O)CN1C(CCCCCCC)CCCCCCC.Cl` [compound 33·HCl, (2R,3R,4R,5R)-2-Octyl-1-(pentadecan-8-yl)-piperidine-3,4,5-triol Hydrochloride] were 2% and 5%.
Taken in the same sequence, the figures for `CCCCCCCC[C@H]1[C@@H](O)[C@H](O)[C@H](O)CN1CCCCCCCC` [compound 14, (2S,3R,4R,5R)-1,2-Dioctylpiperidine-3,4,5-triol] were 0% and 25%.

These data come from publication PMC8453635, “Piperidine Azasugars Bearing Lipophilic Chains: Stereoselective Synthesis and Biological Activity as Inhibitors of Glucocerebrosidase (GCase)” (The Journal of Organic Chemistry, 2021).
